In series [1] the test system is Pseudomonas aeruginosa, JCM 5961. Briefly: growth curve of Pseudomonas by optical density measuring method, liquid culture (½ TS medium). In kind it is cell-based. As to the method:
100 mg of a sucrose monolaurate (Ryoto Sugar Ester L1695 produced by Mitsubishi-Kagaku Foods Corporation) was dissolved in 1 liter of a sterilized deionized water, the resultant solution was heated to 50° C., 50 mg of monolaurin (Taiyo Kagaku Co., Ltd.) was added thereinto followed by stirring, the dissolution thereof was then confirmed, and the resultant solution was subsequently cooled down to a room temperature. Added into the solution was 50 mg of an ε-polylysine product (50% dextrin powder produced by Chisso Corporation; containing 50% of ε-polylysine bromate and 50% of dextrin), followed by dissolution thereof, to obtain an antimicrobial aqueous solution. This antimicrobial aqueous solution contained 25 μg/ml of the ε-polylysine, 50 μg/ml of the monolaurin, and 100 μg/ml of the sucrose monolaurate. Here, used as the monolaurin was that recrystallized by means of hexane, because a monolaurin of high purity was required. […]

The test system of series [2] is bacteria and fungi. Put plainly: growth of bacteria and fungi with diluted ε-polylysine by itself. Format: cell-based. Conditions: ε-polylysine by itself diluted down to about 6.25 μg/ml.
For series [3] the following is noted: acute toxicity; cited from earlier work.
The test system of series [4] is Pseudomonas. Briefly: successive 2-fold dilution in test tubes, visual observation of growth of bacteria. Details: key to growth of bacteria, Dilution rate 0 / growth of bacteria, Dilution rate ×2 / growth of bacteria, Dilution rate ×4: visually observing a growth of bacteria, and the observation result is shown by marks of + and −; visually observing a growth of bacteria, and the observation result is shown by marks of + and −. Format: cell-based. The protocol: Further, successive 2-fold dilutions […] media of ½ concentration; 5 ml of the applicable diluted solution at each fold was separately poured into dual test tubes, for preparation; while simultaneously preparing diluted solutions of ε-polylysine only in test tubes as a comparative test, in the same manner as the above; and one droplet of an inoculum of Pseudomonas was inoculated into each diluted solution, followed by shaking and culturing at 37° C. for 18 hours. Judgment of each activity was conducted by visually observing a growth of bacteria, and the observation result is shown by marks of + and −.

Where [5] appears, read: 37° C. for 18 hours, start: ε-polylysine only 50 μg/ml, or ε-polylysine 8 μg/ml (fix) + diglycerol monolaurate 50 μg/ml.

Consider ε-polylysine, for which the “growth of bacteria (growth curve, FIG. 2)” value in series [1] (10 μg/ml of each component named in the sample code, compared with control without additive) is given as “growth of bacteria to the similar level as a control”. In addition, in series [1] (sample codes give μg/ml (M monolaurin, PL ε-polylysine, S sucrose monolaurate)), the “lapse of time after which growth of bacteria set in (growth curve, FIG. 1)” value turned out to be 12 h. Moreover, in series [2], the “effect on growth of bacteria and fungi” value is “promote growth of bacteria and fungi”. Also, the LD50 in series [3] was above 10000 mg/kg. In series [4] (setting [5]), the “growth of bacteria, Dilution rate 0” value was “−”; the “growth of bacteria, Dilution rate ×2” value was “−”; the “growth of bacteria, Dilution rate ×4” value is reported as “−”. Moreover, the “dilutions in which growth of bacteria was found” value in series [4] (ε-polylysine only, start 50 μg/ml, successive 2-fold dilution) was at least 8 fold.
